This note sets out measurements from ChEMBL document CHEMBL1221362, “Dialkylaminoalkyl derivatives of bicyclic compounds with antiplasmodial activity” (Bioorg Med Chem, 2010).

By IC50 is commonly meant the concentration that gives 50% inhibition.

The subject of data set [1] is Plasmodium berghei. Kind of data set: Antimalarial activity against Plasmodium berghei ANKA infected in albino mice (Mus musculus) assessed as reduction in parasitemia at 50 mg/kg, intraperitoneal for 4 days. It is filed as functional. Set-up: scale not given: the % may be the effect or the level left.
The next data set concerns L6. The data set can be described thus: Cytotoxicity against rat L6 cells. It counts as cell-based.
Another data set relates to Plasmodium falciparum. The data set can be described thus: Antiplasmodial activity against Plasmodium falciparum K1 infected in human blood by [3H]hypoxanthine incorporation assay. It counts as functional, organism-based.
Data set [2] can be described thus: Selectivity index, ratio of IC50 for rat L6 cells to IC50 for Plasmodium falciparum K1. It is filed as toxicity, cell-based. The settings on record: read-out: Ratio IC50.
Data set [3] has as its system Mus musculus. Kind of data set: Toxicity in albino mouse assessed as mean survival days at 50 mg/kg, ip for 4 days. Set-up: dose 50 mg/kg, route intraperitoneal. The settings on record: in vivo, 96 h. It counts as organism-based.
Data set [4] has as its system Mus musculus. The data set can be described thus: Toxicity in albino mouse assessed as mean survival days at 10 mg/kg, ip for 4 days. The settings on record: in vivo, 96 h. It counts as organism-based. Also noted: dose 10 mg/kg, route intraperitoneal.
The test system of data set [5] is Plasmodium berghei. The data set can be described thus: Antimalarial activity against Plasmodium berghei ANKA infected in albino mice (Mus musculus) assessed as reduction in parasitemia at 30 mg/kg, intraperitoneal for 4 days. It is filed as functional. Also noted: scale not given: the % may be the effect or the level left.
Data set [6] relates to Mus musculus. The data set can be described thus: Toxicity in albino mouse assessed as mean survival days at 30 mg/kg, ip for 4 days. It counts as organism-based. Also noted: dose 30 mg/kg, route intraperitoneal. The settings on record: in vivo, 96 h.

With `O=C(CCN1CCCCC1)N1CCC2(N3CCCCC3)CC(c3ccccc3)C1C(c1ccccc1)C2` (racemic), the Activity in the data set with Plasmodium berghei [1] is 36.5%. Further, the 50% inhibitory concentration (IC50) was 63900 nM in the data set with L6 and 190 nM with Plasmodium falciparum. In addition, the selectivity ratio in data set [2] came out at 336. Moreover, the MSD in the data set with Mus musculus [3] is 6 days.

As to `c1ccc(C2CC3(N4CCCC4)CCN(CCN4CCCC4)C2C(c2ccccc2)C3)cc1` (stereo unspecified), in data set [2], the selectivity ratio worked out at 116.

In the case of `CN(C)C12CCN(C(=O)CCN3CCCCC3)C(C(c3ccccc3)C1)C(c1ccccc1)C2` (racemic), the concentration for half-maximal inhibition (IC50) in the data set with L6 worked out at 128000 nM; in the data set with Plasmodium falciparum, 1070 nM. Further, the selectivity ratio in data set [2] was determined as 120.

`c1ccc(C2CC3(N4CCCCC4)CCN(CCCN4CCCCC4)C2C(c2ccccc2)C3)cc1` (racemic): in the data set on Plasmodium berghei [1], the Activity was determined as 30.4%. In addition, the IC50 in the data set with L6 amounted to 138000 nM; in the data set with Plasmodium falciparum, 120 nM. Moreover, the selectivity ratio in data set [2] stood at 1150. For the same compound, the MSD in the data set with Mus musculus [3] was determined as 8 days.

In the case of `CCN(CC)CCCC(C)Nc1ccnc2cc(Cl)ccc12` (stereo unspecified) [CHLOROQUINE], in the data set on Mus musculus [4], the MSD worked out at 20 days.

Regarding `c1ccc(C2CC3(N4CCCC4)CCN(CCCN4CCCCC4)C2C(c2ccccc2)C3)cc1` (racemic), the Activity with Plasmodium berghei [5] was found to be 31%. The half-maximal inhibitory concentration (IC50) with L6 is 28700 nM; in the data set on Plasmodium falciparum it was 100 nM. The selectivity ratio in data set [2] worked out at 287. The MSD in the data set on Mus musculus [6] was found to be 7 days.

As for `CN(C)C12CCN(CCN3CCCC3)C(C(c3ccccc3)C1)C(c1ccccc1)C2` (stereo unspecified), in data set [2], the selectivity ratio is 136.

`C[C@@H]1CC[C@H]2[C@@H](C)C(=O)O[C@@H]3O[C@@]4(C)CC[C@@H]1[C@]32OO4` [ARTEMISININ]: in the data set with Plasmodium falciparum, the IC50 was determined as 6.4 nM.

Turning to `O=C(CN1CCCC1)NC1CC2(N3CCCCC3)CC(c3ccccc3)C1C(c1ccccc1)C2` (stereo unspecified), the IC50 was 21000 nM in the data set on L6 and 110 nM with Plasmodium falciparum. The selectivity ratio in data set [2] worked out at 191.

As for `CN(C)C12CCN(CCCN3CCCCC3)C(C(c3ccccc3)C1)C(c1ccccc1)C2` (racemic), the values for the half-maximal inhibitory concentration (IC50) in the data set with L6 and with Plasmodium falciparum were 58400 nM and 360 nM, respectively. The selectivity ratio in data set [2] worked out at 162.

Consider `O=C(CCN1CCCCC1)N1CCC2(N3CCCC3)CC(c3ccccc3)C1C(c1ccccc1)C2` (racemic), for which, in the data set on Plasmodium berghei [5], the Activity is 27.2%. The IC50 with L6 came to 108000 nM; in the data set on Plasmodium falciparum it was 360 nM. Further, the selectivity ratio in data set [2] came out at 300. Besides, the MSD with Mus musculus [6] was 6.7 days.

On to `CCN1CCN(CCN2CCC3(N4CCCC4)CC(c4ccccc4)C2C(c2ccccc2)C3)CC1` (racemic), for which the Activity with Plasmodium berghei [5] stood at 8.9%. Also, the half-maximal inhibitory concentration (IC50) in the data set on L6 amounted to 53600 nM; in the data set with Plasmodium falciparum it was 180 nM. Besides, in data set [2], the selectivity ratio was found to be 298. Also, the MSD in the data set on Mus musculus [6] turned out to be 7 days.

On to `CCN1CCN(CCN2CCC3(N(C)C)CC(c4ccccc4)C2C(c2ccccc2)C3)CC1` (racemic), for which the values for the concentration for half-maximal inhibition (IC50) in the data set on L6 and in the data set on Plasmodium falciparum were 58000 nM and 340 nM, respectively. Further, in data set [2], the selectivity ratio turned out to be 170.

In the case of `CCN1CCN(CCN2CCC3(N4CCCCC4)CC(c4ccccc4)C2C(c2ccccc2)C3)CC1` (racemic), in the data set with Plasmodium berghei [5], the Activity came out at 0%. The IC50 came out at 67500 nM in the data set with L6 and 140 nM with Plasmodium falciparum. For the same compound, in data set [2], the selectivity ratio is 482. For the same compound, the MSD in the data set on Mus musculus [6] is 7 days.
